{"source": "ChEMBL document CHEMBL4831503", "about": "“Design, synthesis, in vitro and in vivo anti-respiratory syncytial virus (RSV) activity of novel oxizine fused benzimidazole derivatives” (Eur J Med Chem, 2021)", "key": {"[1]": {"tested_on": "Respiratory syncytial virus", "experiment": "Antiviral activity against RSV infected in BALB/c mouse assessed as downregulation of TNF-alpha expression in lung tissue infected with RSV at 25 to 100 mg/kg/day measured after 2 to 6 days post infection by RT-PCR analysis", "assay_type": "functional, organism-based", "settings": "dose 25-100 mg/kg/day, time 2-6 day"}, "[2]": {"tested_on": "Respiratory syncytial virus", "experiment": "Antiviral activity against Respiratory syncytial virus Long infected in African green monkey Vero cells assessed as reduction in viral infection incubated for 60 hrs by MTT assay", "assay_type": "functional, organism-based", "settings": "human respiratory syncytial virus"}, "[3]": {"experiment": "Selectivity index, ratio of CC50 for human HEp-2 cells to EC50 for Respiratory syncytial virus infected in human HEp-2 cells", "assay_type": "toxicity, cell-based", "settings": "read-out: Selectivity Index"}, "[4]": {"tested_on": "Respiratory syncytial virus", "experiment": "Antiviral activity against RSV Long infected in BALB/c mouse assessed as reduction in lung tissue damage by measuring lung index at 25 to 100 mg/kg/day measured after 4 to 6 days of virus infection", "assay_type": "functional, organism-based", "settings": "dose 25-100 mg/kg/day, time 4-6 day"}, "[5]": {"tested_on": "Respiratory syncytial virus", "experiment": "Antiviral activity against RSV Long infected in BALB/c mouse assessed as reduction in lung tissue damage by measuring lung index at 25 to 100 mg/kg/day measured after 2 days of virus infection", "assay_type": "functional, organism-based", "settings": "dose 25-100 mg/kg/day, time 2.0 day"}, "[6]": {"tested_on": "Respiratory syncytial virus", "experiment": "Inhibition of RSV induced apoptosis in human HEp-2 cells assessed as late apoptotic cells at 25 uM measured after 60 hrs by Annexin V-FITC/PI staining based flow cytometry analysis (reference value: 20.2%)", "assay_type": "functional", "parameters": "scale not given: the % may be the effect or the level left"}, "[7]": {"tested_on": "Respiratory syncytial virus", "experiment": "Antiviral activity against RSV Long infected in BALB/c mouse assessed as lung edema at 25 mg/kg/day observed on day 6 after infection by H and E staining based microscopic analysis", "assay_type": "functional, organism-based", "settings": "time 6.0 day"}, "HEp-2 [8]": {"tested_on": "HEp-2", "experiment": "Induction of apoptosis in human HEp-2 cells assessed as early apoptotic cells at 25 uM measured after 60 hrs by Annexin V-FITC/PI staining based flow cytometry analysis (reference value: 0.1%)", "assay_type": "functional"}, "HEp-2 [9]": {"tested_on": "HEp-2", "experiment": "Inhibition of RSV induced autophagy flux in RSV-infected infected human HEP-2 cells by measuring p62 expression at 25 to 50 uM measured after 24 hrs by Western blot analysis", "assay_type": "functional, cell-based", "settings": "Respiratory syncytial virus, dose 25-50 µM"}, "[10]": {"tested_on": "Respiratory syncytial virus", "experiment": "Antiviral activity against Respiratory syncytial virus infected in human HEp-2 cells assessed as reduction in RSV-F gene expression at 25 uM measured after 24 to 60 hpi by RT-PCR analysis", "assay_type": "functional, organism-based", "settings": "time 24-60 hrs"}, "HEp-2 [11]": {"tested_on": "HEp-2", "experiment": "Induction of ROS production in human HEp-2 cells assessed as accumulation of ROS-positive cells at 25 uM measured after 36 hrs by DCHF-DA staining based flow cytometry analysis (reference value: 48.2%)", "assay_type": "functional"}, "Human orthopneumovirus": {"tested_on": "Human orthopneumovirus", "experiment": "Antiviral activity against Respiratory syncytial virus A2 infected in African green monkey Vero cells assessed as reduction in viral infection incubated for 60 hrs by MTT assay", "assay_type": "functional, organism-based"}, "[12]": {"tested_on": "Respiratory syncytial virus", "experiment": "Inhibition of RSV induced apoptosis in human HEp-2 cells assessed as reduction in PARP cleavage measured after 48 hrs by Western blot analysis", "assay_type": "functional, organism-based"}, "[13]": {"tested_on": "Respiratory syncytial virus", "experiment": "Inhibition of RSV induced apoptosis in human HEp-2 cells assessed as early apoptotic cells at 50 uM measured after 60 hrs by Annexin V-FITC/PI staining based flow cytometry analysis (reference value: 10.3%)", "assay_type": "functional", "parameters": "scale not given: the % may be the effect or the level left"}, "[14]": {"tested_on": "Respiratory syncytial virus", "experiment": "Antiviral activity against RSV infected in human HEp-2 cells assessed as decrease in virus induced TLR-3 gene expression measured after 48 hrs by RT-PCR analysis", "assay_type": "functional, organism-based"}, "[15]": {"tested_on": "Respiratory syncytial virus", "experiment": "Antiviral activity against RSV infected in BALB/c mouse assessed as inhibition of viral replication by measuring RSV-M gene expression in lung after 2 to 6 days post infection by RT-PCR analysis", "assay_type": "functional, organism-based", "settings": "time 2-6 day"}, "[16]": {"tested_on": "Respiratory syncytial virus", "experiment": "Inhibition of RSV induced apoptosis in human HEp-2 cells assessed as reduction in cleaved caspase-9 expression measured after 48 hrs by Western blot analysis", "assay_type": "functional, organism-based"}, "[17]": {"tested_on": "Respiratory syncytial virus", "experiment": "Inhibition of RSV induced apoptosis in human HEp-2 cells assessed as reduction in cleaved caspase-3 expression measured after 60 hrs by Western blot analysis", "assay_type": "functional, organism-based"}, "HEp-2 [18]": {"tested_on": "HEp-2", "experiment": "Induction of apoptosis in human HEp-2 cells assessed as late apoptotic cells at 25 uM measured after 60 hrs by Annexin V-FITC/PI staining based flow cytometry analysis (reference value: 1.6%)", "assay_type": "functional"}, "[19]": {"experiment": "Selectivity index, ratio of CC50 for human HEp-2 cells to EC50 for Respiratory syncytial virus A2 infected in human HEp-2 cells", "assay_type": "toxicity, cell-based", "settings": "read-out: Selectivity Index"}, "[20]": {"tested_on": "Respiratory syncytial virus", "experiment": "Antiviral activity against RSV infected in human HEp-2 cells assessed as downregulation of NF-kappaB expression at 25 to 50 uM treated 48 hpi and measured after 48 hrs by Western blot analysis", "assay_type": "functional, organism-based", "settings": "dose 25-50 µM"}, "[21]": {"tested_on": "Respiratory syncytial virus", "experiment": "Antiviral activity against RSV Long infected in BALB/c mouse assessed as inhibition of alveolar infiltrates accumulation at 25 to 100 mg/kg/day observed on day 6 after infection by H and E staining based microscopic analysis", "assay_type": "functional, organism-based", "settings": "dose 25-100 mg/kg/day, time 6.0 day"}, "[22]": {"tested_on": "Respiratory syncytial virus", "experiment": "Antiviral activity against RSV Long infected in BALB/c mouse assessed as improvement in lung congestion at 25 to 100 mg/kg/day observed on day 6 after infection by H and E staining based microscopic analysis", "assay_type": "functional, organism-based", "settings": "dose 25-100 mg/kg/day, time 6.0 day"}, "[23]": {"tested_on": "Respiratory syncytial virus", "experiment": "Inhibition of RSV induced apoptosis in human HEp-2 cells assessed as reduction in cleaved caspase-7 expression measured after 48 hrs by Western blot analysis", "assay_type": "functional, organism-based"}, "[24]": {"experiment": "Cytotoxicity against human HEp-2 cells assessed as reduction in cell viability measured after 60 hrs by MTT assay", "assay_type": "cell-based"}, "[25]": {"tested_on": "Respiratory syncytial virus", "experiment": "Antiviral activity against Respiratory syncytial virus infected in human HEp-2 cells incubated for 60 hrs by MTT assay", "assay_type": "functional, organism-based", "settings": "HEp-2, 60 h"}, "[26]": {"tested_on": "Respiratory syncytial virus", "experiment": "Antiviral activity against RSV infected in BALB/c mouse assessed as downregulation of IRF3 expression in lung tissue infected with RSV at 25 to 100 mg/kg/day measured after 2 to 4 days post infection by RT-PCR analysis", "assay_type": "functional, organism-based", "settings": "dose 25-100 mg/kg/day, time 2-4 day"}, "[27]": {"experiment": "Inhibition of RSV induced ROS production in human HEp-2 cells assessed as reduction in accumulation of ROS-positive cells at 50 uM measured after 36 hrs by DCHF-DA staining based flow cytometry analysis (reference value: 82.2%)", "assay_type": "functional, Respiratory syncytial virus", "parameters": "scale not given: the % may be the effect or the level left"}, "[28]": {"tested_on": "Respiratory syncytial virus", "experiment": "Antiviral activity against RSV infected in human HEp-2 cells assessed as downregulation of RIG-1 expression at 25 to 50 uM treated 48 hpi and measured after 48 hrs by Western blot analysis", "assay_type": "functional, organism-based", "settings": "dose 25-50 µM"}, "[29]": {"tested_on": "Respiratory syncytial virus", "experiment": "Inhibition of RSV induced apoptosis in human HEp-2 cells assessed as reversal of virus induced increase in Bax/Bcl-2 ratio at 25 to 50 uM measured after 36 hrs by Western blot analysis", "assay_type": "functional, organism-based", "settings": "dose 25-50 µM"}, "[30]": {"tested_on": "Respiratory syncytial virus", "experiment": "Antiviral activity against RSV infected in human HEp-2 cells assessed as decrease in virus induced NF-kappaB gene expression measured after 48 hrs by RT-PCR analysis", "assay_type": "functional, organism-based"}, "[31]": {"tested_on": "Respiratory syncytial virus", "experiment": "Antiviral activity against RSV infected in human HEp-2 cells assessed as decrease in virus induced TRAF3 gene expression measured after 48 hrs by RT-PCR analysis", "assay_type": "functional, organism-based"}, "[32]": {"tested_on": "Respiratory syncytial virus", "experiment": "Antiviral activity against Respiratory syncytial virus Long infected in human HEp-2 cells assessed as reduction in viral infection up to 50 uM treated 2 hpi measured after 60 hrs by MTT assay", "assay_type": "functional, organism-based", "settings": "dose microM <=50, time 60.0 hrs"}}, "note": "Activity calls are given as the source filed them. The rule behind the calls is not given here.", "data": [{"molecule": "Cc1c(Br)cc2nc3n(c2c1Br)[C@H]1OC[C@@H](O)[C@H]1OC3", "values": [{"measurement": "Activity", "setting": "[1]", "value": "Active"}, {"measurement": "EC50", "setting": "[2]", "value": 19, "unit": "µM"}, {"measurement": "selectivity ratio", "setting": "[3]", "value": 26.4}, {"measurement": "Activity", "setting": "[4]", "value": "Active"}, {"measurement": "Activity", "setting": "[5]", "value": "Active"}, {"measurement": "Activity", "setting": "[6]", "value": 1.8, "unit": "%"}, {"measurement": "Activity", "setting": "[7]", "value": "Active"}, {"measurement": "Activity", "setting": "HEp-2 [8]", "value": 0.4, "unit": "%"}, {"measurement": "Activity", "setting": "HEp-2 [9]", "value": "Active"}, {"measurement": "Activity", "setting": "[10]", "value": "Active"}, {"measurement": "Activity", "setting": "HEp-2 [11]", "value": 53.1, "unit": "%"}, {"measurement": "EC50", "setting": "Human orthopneumovirus", "value": 15.5, "unit": "µM"}, {"measurement": "inhibition", "setting": "[12]", "value": "Active"}, {"measurement": "Activity", "setting": "[13]", "value": 3.9, "unit": "%"}, {"measurement": "Activity", "setting": "[14]", "value": "Dose-Dependent Effect"}, {"measurement": "Activity", "setting": "[15]", "value": "Dose-Dependent Effect"}, {"measurement": "inhibition", "setting": "[16]", "value": "Active"}, {"measurement": "inhibition", "setting": "[17]", "value": "Active"}, {"measurement": "Activity", "setting": "HEp-2 [18]", "value": 2.4, "unit": "%"}, {"measurement": "selectivity ratio", "setting": "[19]", "value": 19.6}, {"measurement": "Activity", "setting": "[20]", "value": "Active"}, {"measurement": "Activity", "setting": "[21]", "value": "Active"}, {"measurement": "Activity", "setting": "[22]", "value": "Active"}, {"measurement": "inhibition", "setting": "[23]", "value": "Active"}, {"measurement": "CC50 at 60 h", "setting": "[24]", "value": 250, "unit": "µM"}, {"measurement": "EC50", "setting": "[25]", "value": 9.49, "unit": "µM"}, {"measurement": "Activity", "setting": "[26]", "value": "Active"}, {"measurement": "Activity", "setting": "[27]", "value": 56.3, "unit": "%"}, {"measurement": "Activity", "setting": "[28]", "value": "Active"}, {"measurement": "inhibition", "setting": "[29]", "value": "Active"}, {"measurement": "Activity", "setting": "[30]", "value": "Dose-Dependent Effect"}, {"measurement": "Activity", "setting": "[31]", "value": "Dose-Dependent Effect"}, {"measurement": "Activity", "setting": "[32]", "value": "Active"}]}]}
